PMC10359466, “Identification of a small-molecule inhibitor that selectively blocks DNA-binding by Trypanosoma brucei replication protein A1” (Nature Communications, 2023)
“Also recorded” adds a separate entry of the source.

How the values were obtained:
T. brucei cells = assay: AlamarBlue cell viability / growth inhibition of T. brucei; settings: 10 to 60 μM, even at 60 µM, 72 h
Description: Synergy H1 microplate reader (BioTek) was used with 560/590 nm (excitation/emission) filter settings and relative fluorescence unit (RFU) values were obtained. The percentage of viable cells were calculated from the RFU values.
Trypanosome cells were seeded at 1 × 10^3 cells/ml density in 180 µl in a 96-well culture plate in triplicate. […] DMSO was used as a vehicle control at 0.0075%.

[1] = test system: human non-small cell lung cancer H460 cells; settings: read-out: IC50, inhibition of proliferation; cited from earlier work

**Q.** What does the source list for `CCOc1ccc2cc(C3CC(c4ccc(Br)cc4)=NN3C(=O)CCC(=O)O)c(Cl)nc2c1` (centres unmarked) [TDRL-505, reference compound]?
**A.** Effect on T. brucei proliferation (T. brucei cells): did not observe any effect; also recorded: did not show any toxicity; IC50 [1]: 30.8 µM
